According to patent publication US12122761B2, “2-azaspiro[3.4]octane derivatives as M4 agonists” (NOVARTIS AG, priority 2019, dated 2024):

Assays:
[1] = target: T1, human cloned CHRM5 receptor (M5_CHO) (Homo sapiens, UniProt P08912); assay: CHRM5 Ca++ Flux Assay (agonist mode, FDSS 7000EX); format: cell-based; conditions: for M5 FDSS PA: Percent Activity measured to EC100 of Carbachol; for EC50: agonist mode, geometric mean if tested more than once, read-out: M5 FDSS EC50
T1 construct: expressed in transfected cells; host or cells: CHO (M5_CHO)
T1 sequence (P08912 1-532): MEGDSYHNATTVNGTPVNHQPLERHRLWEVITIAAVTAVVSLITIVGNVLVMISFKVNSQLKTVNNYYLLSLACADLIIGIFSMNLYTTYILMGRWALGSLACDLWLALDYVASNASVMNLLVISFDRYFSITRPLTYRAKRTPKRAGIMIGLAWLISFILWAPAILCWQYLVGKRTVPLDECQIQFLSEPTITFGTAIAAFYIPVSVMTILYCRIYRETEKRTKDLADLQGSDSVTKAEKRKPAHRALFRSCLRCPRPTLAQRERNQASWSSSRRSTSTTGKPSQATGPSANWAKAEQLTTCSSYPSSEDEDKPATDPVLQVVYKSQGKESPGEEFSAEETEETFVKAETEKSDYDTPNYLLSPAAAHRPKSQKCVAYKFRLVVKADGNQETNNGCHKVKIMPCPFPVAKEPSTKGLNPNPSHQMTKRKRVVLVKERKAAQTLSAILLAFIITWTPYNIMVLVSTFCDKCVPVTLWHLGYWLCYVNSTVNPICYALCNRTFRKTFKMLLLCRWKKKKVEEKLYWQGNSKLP
Description: (§1) The above examples were characterized by measuring the intracellular mobilization of Ca++ ions caused by signaling events mediated by the receptor. The Intra-cellular Calcium flux levels were captured by the highly sensitive Ca++ indicator, Calcium Assay Kit (BD Biosciences, Catalog Number 640178). The fluorescent activity from all receptors were monitored by the fluorescent imager, FDSS 7000EX (Hamamatsu) over a span of 3 minutes.
(§2) CHO-K1 cells stably expressing the human cloned CHRM3 receptor (M3_CHO cells) were grown and maintained in a monolayer culture with F12/HAM (Life Technologies) supplemented with 10% Fetal Bovine Serum, 1× Pen-Strep, and 0.4 mg/mL Geneticin in a humidified atmosphere (5% CO2) at 37° C. The cultures were grown to 80-9 0% confluency in T150 flasks (Corning) and washed with 1×DPBS and lifted with 0.05% Trypsin (Life Technologies). The cells were then spun (1K rpm, 3 minutes) and frozen using Recovery Cell Culture Freezing Media (Gibco Technologies). Cells were stored in liquid nitrogen and thawed a day before the assay. A similar procedure was used for cells stably expressing the human cloned CHRM5 receptor (M5_CHO).
Prior to the day of the assay, stable M3_CHO or M5_CHO cells were thawed and plated on Greiner 384 well black TC treated plates at 12K cells/well in F12/DMEM supplemented with 10% FBS (Hyclone) and kept overnight in a humidified atmosphere (5% CO2) at 37° C. The next day, cells were loaded with Ca^++ dye (BD Biosciences) using Loading Buffer (HBSS +Ca/+Mg, 20 mM HEPES, 2.5 mM Probenecid) and placed back in cell incubator for a minimum of 1 hour. After incubation, the dye was replaced with Assay Buffer (HBSS −Ca/−Mg, 20 mM HEPES, 2.5 mM Probenecid) and kept at room temperature in the dark before running on cell imager. The FDSS 7000EX (Hamamatsu) was used to acquire Ca^++ traces from cells treated with 11 point dose response of compounds in triplicate in order to generate dose response curves in agonist mode. All compounds were serially diluted in DMSO then prepared in Assay Buffer for Ca^++ flux studies. The dose response curves were generated from the average of triplicate wells obtained from each data point and used a non-linear regression of four parameter dose response algorithm. The Percent Activity (PA) was measured to EC100 of Carbachol.

[2] = target: T2, human cloned CHRM2 receptor (M2_CHO cells) (Homo sapiens, UniProt P08172); assay: CHRM2 Ca++ Flux Assay (agonist mode, FDSS 7000EX); format: cell-based; conditions: for M2 FDSS PA: Percent Activity measured to EC100 of Carbachol
T2 construct: expressed in transfected cells; host or cells: CHO-K1
T2 sequence (P08172 1-466): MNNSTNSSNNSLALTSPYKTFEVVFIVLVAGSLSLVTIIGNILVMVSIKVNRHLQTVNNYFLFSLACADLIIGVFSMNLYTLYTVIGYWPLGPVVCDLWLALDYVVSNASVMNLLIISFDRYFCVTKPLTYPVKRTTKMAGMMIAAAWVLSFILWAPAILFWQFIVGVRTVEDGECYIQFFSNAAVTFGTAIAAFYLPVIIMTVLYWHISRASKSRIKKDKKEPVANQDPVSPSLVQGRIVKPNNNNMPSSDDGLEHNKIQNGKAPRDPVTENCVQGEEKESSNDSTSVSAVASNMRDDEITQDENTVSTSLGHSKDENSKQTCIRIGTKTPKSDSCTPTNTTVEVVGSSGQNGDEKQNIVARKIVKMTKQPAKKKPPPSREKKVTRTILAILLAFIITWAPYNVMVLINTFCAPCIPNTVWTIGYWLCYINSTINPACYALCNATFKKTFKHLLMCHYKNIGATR
Description: as §1
as §2, with “CHRM2” for “CHRM3”, “(M2_CHO” for “(M3_CHO”, “assay.” for “assay. A similar procedure was used for cells stably expressing the human cloned CHRM5 receptor (M5_CHO).”
Prior to the day of the assay, stable M2 CHO cells were thawed and plated on Greiner 384 well TC treated plate at a density of 12K cells/well and kept overnight in a humidified atmosphere (5% CO2) at 37° C. The following day, the cells were loaded with Ca^++ dye (BD Biosciences) using Loading Buffer (HBSS +Ca/+Mg, 20 mM HEPES, 2.5 mM Probenecid) and placed back in cell incubator for a minimum of 1 hour and maximum of 2 hours. After incubation, the dye was replaced with Assay Buffer (HBSS −Ca/−Mg, 20 mM HEPES, 2.5 mM Probenecid) supplemented with 20 μM ATP (Sigma Aldrich) and kept at room temperature for 60 minutes prior before running on cell imager. The FDSS 7000EX (Hamamatsu) was used to acquire Ca^++ traces from cells in response to compound treatment and the data was used to generate dose response curves in agonist mode. All compounds were serially diluted in DMSO then prepared in Assay Buffer for Ca^++ flux studies. The dose response curves were generated from the average of triplicate wells obtained from each data point and used a non-linear regression of four parameter dose response algorithm. The Percent Activity (PA) was measured to EC100 of Carbachol.

O[C@H]1CC[C@@H](c2ccccc2C2CCN([C@@H]3CCC4(C3)CN(c3nnco3)C4)CC2)CC1 (single isomer, unassigned) [Example 2N, (1S,4s)-4-(2-(1-((R)-2-(1,3,4-oxadiazol-2-yl)-2-azaspiro[3.4]octan-6-yl)piperidin-4-yl)phenyl)cyclohexan-1-ol or (1R,4r)-4-(2-(1-((R)-2-(1,3,4-oxadiazol-2-yl)-2-azaspiro[3.4]octan-6-yl)piperidin-4-yl)phenyl)cyclohexan-1-ol]
M5 FDSS PA [1]: 0%
EC50 [1]: > 25 µM
M2 FDSS PA [2]: 0%

OC1CCC(c2ccccc2C2CCN([C@@H]3CCC4(C3)CN(c3nnco3)C4)CC2)CC1 (single isomer, unassigned) [Example 2O, (1s,4r)-4-(2-(1-((R)-2-(1,3,4-oxadiazol-2-yl)-2-azaspiro[3.4]octan-6-yl)piperidin-4-yl)phenyl)cyclohexan-1-ol or (1r,4r)-4-(2-(1-((R)-2-(1,3,4-oxadiazol-2-yl)-2-azaspiro[3.4]octan-6-yl)piperidin-4-yl)phenyl)cyclohexan-1-ol]
M5 FDSS PA [1]: 0%
EC50 [1]: > 25 µM
M2 FDSS PA [2]: 28%
EC50 ([2]; agonist mode, geometric mean if tested more than once, read-out: M2 FDSS EC50): 0.09 µM

O=C(N1CC2(CC[C@@H](N3CCC(c4ccccc4OCCC(F)(F)F)CC3)C2)C1)C1(F)CC1 (single isomer, unassigned) [Example 7AA, (R)-(1-fluorocyclopropyl)(6-(4-(2-(3,3,3-trifluoropropoxy)phenyl)piperidin-1-yl)-2-azaspiro[3.4]octan-2-yl)methanone or (S)-(1-fluorocyclopropyl)(6-(4-(2-(3,3,3-trifluoropropoxy)phenyl)piperidin-1-yl)-2-azaspiro[3.4]octan-2-yl)methanone]
M5 FDSS PA [1]: 0%
EC50 [1]: > 25 µM
M2 FDSS PA [2]: 0%

CC(C)(O)CCOc1ccccc1C1CCN([C@@H]2CCC3(C2)CN(C(=O)C2(F)CC2)C3)CC1 (single isomer, unassigned) [Example 7BB, (R)-(1-fluorocyclopropyl)(6-(4-(2-(3-hydroxy-3-methylbutoxy)phenyl)piperidin-1-yl)-2-azaspiro[3.4]octan-2-yl)methanone or (S)-(1-fluorocyclopropyl)(6-(4-(2-(3-hydroxy-3-methylbutoxy)phenyl)piperidin-1-yl)-2-azaspiro[3.4]octan-2-yl)methanone]
M5 FDSS PA [1]: 0%
EC50 [1]: > 25 µM
M2 FDSS PA [2]: 0%

COC(C)(C)CCOc1ccccc1C1CCN([C@@H]2CCC3(C2)CN(C(=O)C2(F)CC2)C3)CC1 (single isomer, unassigned) [Example 7FF, (R)-(1-fluorocyclopropyl)(6-(4-(2-(3-methoxy-3-methylbutoxy)phenyl)piperidin-1-yl)-2-azaspiro[3.4]octan-2-yl)methanone or (S)-(1-fluorocyclopropyl)(6-(4-(2-(3-methoxy-3-methylbutoxy)phenyl)piperidin-1-yl)-2-azaspiro[3.4]octan-2-yl)methanone]
M5 FDSS PA [1]: 0%
EC50 [1]: > 25 µM
M2 FDSS PA [2]: 0%

O=C(N1CC2(CC[C@@H](N3CCC(c4ccccc4OCc4ncccn4)CC3)C2)C1)C1(F)CC1 (single isomer, unassigned) [Example 7M, (R)-(1-fluorocyclopropyl)(6-(4-(2-(pyrimidin-2-ylmethoxy)phenyl)piperidin-1-yl)-2-azaspiro[3.4]octan-2-yl)methanone or (S)-(1-fluorocyclopropyl)(6-(4-(2-(pyrimidin-2-ylmethoxy)phenyl)piperidin-1-yl)-2-azaspiro[3.4]octan-2-yl)methanone]
M5 FDSS PA [1]: 0%
EC50 [1]: > 25 µM
M2 FDSS PA [2]: 0%
